Experimental findings from US20250320203A1, “4-(3H-PYRAZOLO[4,3-F]QUINOLIN-7-YL)-N-(2-(DIMETHYLAMINO)ETHYL)BENZAMIDE- OR HYDROXAMIC ACID COMPOUNDS, COMPOSITIONS, AND METHODS OF USE” (Purdue Research Foundation, priority 2022, published 2025) are described below.

One test concerns the target CDK12/CyclinK (Homo sapiens, UniProt Q9NYV4). Briefly: CDK12/CyclinK inhibition (IC50). Format: biochemical.
The target of a further test is CDK2 (Homo sapiens, UniProt P24941). In words: CDK2 inhibition (IC50). Format: biochemical.
The target of the next test is T1, haspin (Homo sapiens, UniProt Q8TF76).
T1 sequence (Q8TF76 1-798): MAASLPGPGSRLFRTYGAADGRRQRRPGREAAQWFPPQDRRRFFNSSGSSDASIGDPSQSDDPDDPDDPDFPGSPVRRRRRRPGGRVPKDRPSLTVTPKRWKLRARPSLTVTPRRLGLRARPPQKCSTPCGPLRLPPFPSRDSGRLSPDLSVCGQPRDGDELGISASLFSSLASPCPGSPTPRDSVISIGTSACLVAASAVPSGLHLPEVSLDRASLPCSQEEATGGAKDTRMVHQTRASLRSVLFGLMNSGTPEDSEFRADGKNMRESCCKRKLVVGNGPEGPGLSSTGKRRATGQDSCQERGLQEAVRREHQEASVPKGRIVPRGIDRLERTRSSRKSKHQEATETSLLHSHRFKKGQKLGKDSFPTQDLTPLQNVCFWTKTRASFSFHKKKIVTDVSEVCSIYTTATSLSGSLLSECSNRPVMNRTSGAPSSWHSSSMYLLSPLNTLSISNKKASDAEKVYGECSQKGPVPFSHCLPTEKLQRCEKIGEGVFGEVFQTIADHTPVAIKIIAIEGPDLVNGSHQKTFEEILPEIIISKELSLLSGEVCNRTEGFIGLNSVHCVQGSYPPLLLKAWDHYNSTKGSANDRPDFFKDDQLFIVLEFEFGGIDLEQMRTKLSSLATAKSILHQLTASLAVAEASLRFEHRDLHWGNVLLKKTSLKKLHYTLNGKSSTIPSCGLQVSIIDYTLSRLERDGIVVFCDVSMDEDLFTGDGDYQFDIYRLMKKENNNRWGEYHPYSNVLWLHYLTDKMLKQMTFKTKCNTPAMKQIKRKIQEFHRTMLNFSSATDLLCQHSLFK
In words: ADP Glo Kinase Assay, haspin, 50 nM inhibitor. To be noted: 50 nM inhibitor conc.; means of triplicates; read-out: Percent Inhibition (%) Haspin. The test is classed as biochemical. As to the method: (§1) With the amide kinase inhibitor library established, kinase inhibition and AML cell line (Molm-14, which harbors FLT3-ITD) growth inhibition were analyzed (Table 1). More specifically, Haspin and FLT3 inhibition were evaluated in-house via ADP Glo Kinase Assay (Promega, Madison, WI). […] Values reported are means of triplicates.
(§2) Briefly, the ADP-Glo Kinase Assay Kit was used to determine inhibition of haspin. Kinase Buffer (SignalChem Cat #K01-09; 25 mM MOPS, pH 7.2, 12.5 mM β-glycerol-phosphate, 25 mM MgCl2, 2 mM EDTA) was supplemented with dithiothreitol (DTT) (0.2 mM) and bovine serum albumin (BSA) (40 μg/mL) immediately prior to use. Reaction volumes of 5 μL containing 9 ng/μL kinase, 10 μM ATP, 50 nM inhibitor, and the appropriate peptide substrate (20 μM) were incubated for 3 hours, and then quenched with an equal volume (5 μL) of GLO reagent. After 40 minutes, 10 μL DET reagent was added and incubated for 1 hour before visualization on a Cytation™ 5 Cell Imaging Multi-Mode Reader (BioTek).

Test [1] deals with histone H3 (Thr3) phosphorylation by haspin. In words: Western blot, histone H3 (Thr3) phosphorylation by haspin in Molm-14 cells. Format: cell-based, human. To be noted: 24 hours, HSK205 5, 20 or 100 nM, gilteritinib 100 nM. On the procedure:
Whether Compound HSK205 does indeed inhibit haspin in AML cells was then evaluated, and immunoblotting was performed to confirm inhibition of histone H3 (Thr3)phosphorylation by haspin (FIG. 13A). […] The samples were subsequently analyzed for the phosphorylation of histone H3 (Thr3).
Acute myeloid leukemia cells (Molm-14) were incubated with various concentrations of compound as specified. Cells were collected and lysed, and protein concentrations were quantified relative to BSA standards. After protein denaturation, proteins were separated via SDS-PAGE electrophoresis and transferred to NC membranes. After blocking, overnight incubation with specific primary antibodies, and room temperature incubation for 2 hours with peroxidase-conjugated secondary antibodies, peroxidase activity was detected with SuperSignal West Pico reagents (Thermo Scientific) using a CCD camera LAS-4000 (Fujifilm). Bands were normalized using housekeeping gene, Actin. Values reported represent the means of triplicates and error bars represent SD. All specific antibodies were purchased from Cell Signaling.

The subject of a further test is Molm-14 cells (FLT3-ITD). Briefly: AML cell line growth inhibition (CellTiter-Blue), 50 nM. The settings on record: Homo sapiens, 50 nM inhibitor conc., means of triplicates, read-out: Percent Inhibition (%) Molm-14 growth. The test is classed as cell-based. As to the method:
as §1
More specifically, cells were cultured to confluence in RPMI medium supplemented with 10% fetal bovine serum and 1× Penicillin-Streptomycin (Gibco™). Cells were plated at 5,000 cells/well in 96 well plates. After 24-hour incubation at 37° C. in a 5% CO2 incubator, compounds diluted in the same media were added to the indicated final concentration and allowed to incubate at 37° C. in a 5% CO2 incubator for 72 hours. Viability was determined using CellTiter-Blue® Cell Viability Assay (Promega, Madison, WI) with absorbance readings at 570 nm performed on a Cytation™ 5 Cell Imaging Multi-Mode Reader (BioTek) 3 hours after addition. Appropriate vehicle and cell-free controls were included. GI50 readings were confirmed by two scientists on two separate days.
On the technique in general: Resazurin is reduced to fluorescent resorufin, in cell work by metabolically active cells.

A further test deals with T2, FLT3 (Homo sapiens, UniProt P36888).
T2 sequence (P36888 27-993): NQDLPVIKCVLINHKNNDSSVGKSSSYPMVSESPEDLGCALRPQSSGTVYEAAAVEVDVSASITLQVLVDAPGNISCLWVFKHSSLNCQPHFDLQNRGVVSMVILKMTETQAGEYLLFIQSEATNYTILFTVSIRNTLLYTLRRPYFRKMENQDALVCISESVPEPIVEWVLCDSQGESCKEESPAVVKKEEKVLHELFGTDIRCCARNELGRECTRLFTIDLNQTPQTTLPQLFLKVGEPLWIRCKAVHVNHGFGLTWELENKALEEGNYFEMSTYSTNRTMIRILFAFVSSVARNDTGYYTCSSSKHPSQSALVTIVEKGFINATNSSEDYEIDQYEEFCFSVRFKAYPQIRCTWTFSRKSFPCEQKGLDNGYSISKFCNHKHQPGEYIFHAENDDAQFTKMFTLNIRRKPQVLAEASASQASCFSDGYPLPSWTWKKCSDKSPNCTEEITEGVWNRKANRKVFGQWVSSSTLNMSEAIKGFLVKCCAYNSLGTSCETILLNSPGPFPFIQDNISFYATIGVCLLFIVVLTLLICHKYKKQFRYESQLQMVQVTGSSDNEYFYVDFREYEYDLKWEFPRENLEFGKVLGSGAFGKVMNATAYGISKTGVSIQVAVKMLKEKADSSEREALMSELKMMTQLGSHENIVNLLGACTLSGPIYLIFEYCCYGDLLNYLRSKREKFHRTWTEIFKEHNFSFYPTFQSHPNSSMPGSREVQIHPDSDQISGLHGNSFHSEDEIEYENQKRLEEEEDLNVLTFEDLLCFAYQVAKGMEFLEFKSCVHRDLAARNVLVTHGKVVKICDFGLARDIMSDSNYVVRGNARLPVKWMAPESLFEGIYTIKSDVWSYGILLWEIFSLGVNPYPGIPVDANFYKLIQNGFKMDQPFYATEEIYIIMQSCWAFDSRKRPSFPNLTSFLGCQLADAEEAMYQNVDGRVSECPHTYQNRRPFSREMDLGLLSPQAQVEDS
Briefly: ADP Glo Kinase Assay, FLT3, 50 nM inhibitor. The test is classed as biochemical. The settings on record: 50 nM inhibitor conc.; means of triplicates; read-out: Percent Inhibition (%) FLT3. On the procedure:
as §1, §2

CDK12/CyclinK, sequence (Q9NYV4 whole entry): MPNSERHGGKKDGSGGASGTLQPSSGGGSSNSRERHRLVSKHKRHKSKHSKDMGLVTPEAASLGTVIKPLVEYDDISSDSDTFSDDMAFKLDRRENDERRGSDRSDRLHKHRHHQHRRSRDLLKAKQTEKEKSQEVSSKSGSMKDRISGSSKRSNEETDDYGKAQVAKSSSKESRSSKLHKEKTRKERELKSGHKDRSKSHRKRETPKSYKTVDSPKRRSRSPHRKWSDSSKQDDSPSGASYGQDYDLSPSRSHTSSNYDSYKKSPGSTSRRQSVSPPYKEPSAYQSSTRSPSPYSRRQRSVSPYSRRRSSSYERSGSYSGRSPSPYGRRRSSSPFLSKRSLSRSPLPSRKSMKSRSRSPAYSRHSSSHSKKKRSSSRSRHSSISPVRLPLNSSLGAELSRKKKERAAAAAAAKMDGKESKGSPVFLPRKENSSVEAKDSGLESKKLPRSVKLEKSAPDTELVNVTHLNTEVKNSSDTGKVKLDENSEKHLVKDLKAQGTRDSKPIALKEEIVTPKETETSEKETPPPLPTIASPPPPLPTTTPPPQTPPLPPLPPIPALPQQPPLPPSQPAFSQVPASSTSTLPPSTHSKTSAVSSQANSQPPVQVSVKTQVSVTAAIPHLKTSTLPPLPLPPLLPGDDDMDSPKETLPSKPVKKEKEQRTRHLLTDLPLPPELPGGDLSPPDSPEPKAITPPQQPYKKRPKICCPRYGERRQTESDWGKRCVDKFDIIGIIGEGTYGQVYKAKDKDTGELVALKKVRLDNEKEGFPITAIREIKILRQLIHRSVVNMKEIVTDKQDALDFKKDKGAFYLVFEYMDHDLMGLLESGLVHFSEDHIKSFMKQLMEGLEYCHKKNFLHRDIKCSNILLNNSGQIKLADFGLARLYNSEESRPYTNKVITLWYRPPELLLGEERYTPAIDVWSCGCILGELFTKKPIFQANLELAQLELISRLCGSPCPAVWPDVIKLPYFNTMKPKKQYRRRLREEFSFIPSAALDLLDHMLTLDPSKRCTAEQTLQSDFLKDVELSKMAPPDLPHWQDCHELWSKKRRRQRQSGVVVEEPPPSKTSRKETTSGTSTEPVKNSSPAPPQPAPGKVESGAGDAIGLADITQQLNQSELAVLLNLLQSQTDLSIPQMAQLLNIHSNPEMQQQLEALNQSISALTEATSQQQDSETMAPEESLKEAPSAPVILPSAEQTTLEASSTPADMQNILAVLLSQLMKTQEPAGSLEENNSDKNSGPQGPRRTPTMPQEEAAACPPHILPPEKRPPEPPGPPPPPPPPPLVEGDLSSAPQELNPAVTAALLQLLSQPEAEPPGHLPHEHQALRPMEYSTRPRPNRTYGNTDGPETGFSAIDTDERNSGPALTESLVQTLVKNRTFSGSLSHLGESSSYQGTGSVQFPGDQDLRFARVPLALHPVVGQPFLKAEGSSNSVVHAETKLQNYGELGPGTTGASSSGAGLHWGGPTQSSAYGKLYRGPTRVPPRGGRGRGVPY
CDK12/CyclinK, sequence (O75909 whole entry partner): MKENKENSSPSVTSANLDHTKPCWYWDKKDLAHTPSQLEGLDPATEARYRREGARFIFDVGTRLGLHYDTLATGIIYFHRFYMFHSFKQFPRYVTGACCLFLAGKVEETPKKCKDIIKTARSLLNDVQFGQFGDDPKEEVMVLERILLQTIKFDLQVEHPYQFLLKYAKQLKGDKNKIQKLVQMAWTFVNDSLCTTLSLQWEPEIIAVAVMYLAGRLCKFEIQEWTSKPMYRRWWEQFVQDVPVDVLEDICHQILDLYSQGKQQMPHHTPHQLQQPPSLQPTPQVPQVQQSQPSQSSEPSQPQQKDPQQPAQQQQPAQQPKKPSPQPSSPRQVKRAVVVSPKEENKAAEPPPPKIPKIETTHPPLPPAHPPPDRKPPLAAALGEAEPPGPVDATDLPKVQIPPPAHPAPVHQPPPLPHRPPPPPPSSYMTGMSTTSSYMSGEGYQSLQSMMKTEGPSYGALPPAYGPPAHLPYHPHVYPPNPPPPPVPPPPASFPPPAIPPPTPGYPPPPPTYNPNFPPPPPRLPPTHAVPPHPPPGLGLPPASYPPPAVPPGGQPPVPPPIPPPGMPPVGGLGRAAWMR

For the compound `O=C(NO)c1ccc(-c2nc3ccc4[nH]ncc4c3c3c2CCCC3)cc1` [Compound HSD1993, N-hydroxy-4-(8,9,10,11-tetrahydro-3H-pyrazolo[4,3-a]phenanthridin-7-yl)benzamide], the IC50 at CDK12/CyclinK is 9 nM; against CDK2 it was 4 nM.

`CCc1nc(C(N)=O)c(Nc2ccc(N3CCC(N4CCN(C)CC4)CC3)c(OC)c2)nc1NC1CCOCC1` [gilteritinib, reference compound]: the inhibition at 0.05 µM on haspin worked out at 11%; in the test on Molm-14 cells (FLT3-ITD), 87%; on FLT3, 93%. Besides, the “phosphorylation of histone H3 (Thr3)” value in test [1] is “did not display haspin inhibition”.

In general, IC50 refers to the point on the concentration scale where inhibition reaches its midpoint. The low end stands for higher potency, the high end for lower potency. One may read the inhibition as the drop in the measured response relative to a control, in per cent.
